1 compound from US20240358684A1, “METHOD FOR ENHANCING INNATE IMMUNE RESPONSE” (Kyoto University, priority 2021, published 2024) can be followed below.

Experiment [1] addresses T1, CLK1 (Homo sapiens, UniProt P49759).
T1 construct: Enzyme activity was measured with off-chip mobility shift assay using purified CLK protein
The experiment in a line: Inhibition confirmation test for CLK (off-chip mobility shift assay). The class given is biochemical. Conditions: ATP 10 μM; read-out: CLK1 inhibitory activity (IC50 value). How it is done: Enzyme activity was measured with off-chip mobility shift assay using purified CLK protein. […] The enzyme reaction was performed at room temperature for 1 hour, and the reaction was terminated by adding QuickScout Screening Assist MSA (Carna Biosciences, Inc.). A substrate peptide and a phosphorylated peptide in the enzyme reaction solution were separated and quantified using the LabChip system (Perkin-Elmer, Waltham, MA, USA), and inhibition of CLK was evaluated by calculating a product ratio using the following formula, the substrate peptide peak height (S), and the phosphorylated peptide peak height (P).
(P/(P+S)) • P: product-derived peak • S: substrate-derived peak

Experiment [2] concerns SARS-CoV-2. The class given is cell-based.
The test system of experiment [3] is IFNB1. It is filed as cell-based, human.

SMILES strings stand for the structures. Where “and” joins values, the source holds several entries; their conditions need not be identical. Equal values may be shown once.

The IC50 is the concentration at which inhibition is half-maximal.

T1 sequence (P49759 whole entry): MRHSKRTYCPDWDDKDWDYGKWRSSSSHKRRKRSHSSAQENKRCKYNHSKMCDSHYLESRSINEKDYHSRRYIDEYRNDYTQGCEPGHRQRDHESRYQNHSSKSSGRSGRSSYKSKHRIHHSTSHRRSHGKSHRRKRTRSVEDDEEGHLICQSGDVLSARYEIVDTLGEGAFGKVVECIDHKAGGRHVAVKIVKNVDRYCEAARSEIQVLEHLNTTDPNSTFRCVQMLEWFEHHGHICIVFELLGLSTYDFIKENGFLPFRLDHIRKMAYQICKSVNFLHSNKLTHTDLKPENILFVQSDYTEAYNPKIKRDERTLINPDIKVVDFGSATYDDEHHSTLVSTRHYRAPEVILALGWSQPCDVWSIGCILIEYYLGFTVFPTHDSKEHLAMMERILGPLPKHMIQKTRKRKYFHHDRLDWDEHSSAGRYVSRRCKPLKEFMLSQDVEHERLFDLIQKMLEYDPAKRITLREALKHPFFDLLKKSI

With `N=C1NC(=O)/C(=C/c2ccc3c(c2)CCO3)S1` [compound 1], in experiment [1], the IC50 amounted to 21.6 nM. In addition, the “viral titer fold change” value in experiment [2] is given as 0.56. The “log10 (TCID50/ml) Batch-effect corrected” value in experiment [2] (10 μM, 2nd batch replicates, listed as Compund 1) is 7.6 and 7.44 and 7.41. Moreover, in experiment [2] (10 μM, raw, single replicates of 1st and 2nd batch, listed as Compund 1), the “log10 (TCID50/ml)” value was 7.5 (2×) and 7.25 and 6.75 and 6.5 and 6.45. Besides, the viral titer in experiment [2] (Calu-3 pre-treated 24 h with 10 μM, MOI 0.01, 48 hours pi, DMSO control 5.18×10^7) is 2.90×10^7. The “transcription of IFNB1 during viral infection” value in experiment [3] was “increases”.
